This is an account of results in patent US20070293443A1, “Composition for Accelerating Calcium Absorption” (Good Shusei Co. Ltd, priority 2004, published 2007).

In data set [1] the test system is dietary calcium absorption. Put plainly: Dietary calcium absorption accelerating effect, blood calcium level after oral calcium carbonate with test substance (Example 1). In kind it is in vivo. The conditions noted are these: male ICR mice, oral 5 mmol/kg calcium carbonate alone or with test substance (1.25-10.0 mmol/kg), up to 4 hours after administration. The source says:
For the experiment, 11-weeks old male ICR mice were used after overnight fasting. During the test period, the mice were given deionized water only. […] The doses of L-arabonic acid administered in combination were 1.25 mmol/kg (Group II), 2.5 mmol/kg (Group III), 5.0 mmol/kg (Group IV), and 10.0 mmol/kg (Group V), and the doses of D-gluconic acid were 2.5 mmol/kg (Group VI), 5.0 mmol/kg (Group VII), and 10.0 mmol/kg (Group VIII). […] The blood calcium level was quantified by a chelate colorimetric method (ortho-cresolphthalein complexone (OCPC) method). The obtained data were analyzed by a paired t-test, and a risk ratio of 5% or less was considered as significant difference.

A further data set relates to mice. In words: Single oral administration safety test, LD50. In kind it is in vivo. The source says: As a result of a single oral test using mice, it was confirmed that the LD50 value of L-arabonic acid was about 10 g/kg, and thus L-arabonic acid was a material having high safety.
While it was discovered in Example 5 that the calcium moiety of calcium L-arabonate used in the invention was extremely readily-absorbable, it was shown in Example 6 that the L-arabonic acid moiety was extremely poorly absorbed in the digestive tract.

The nature of data set [2]: Kinetics of L-arabonic acid in the digestive tract of rat (Example 3). In kind it is in vivo. As for the experimental part:
For the experiment, 7 to 11-weeks old male Wistar rats were used after overnight fasting. After orally administering 5 mmol/kg of L-arabonic acid, the animals were entered into a metabolic cage, and were sacrificed after 2 hours, after 6 hours, and after 24 hours, to remove the digestive tracts. The contents in each site of the digestive tract were recovered respectively, and the amount of unaltered L-arabonic acid was quantified by the HPLC method. The entire amounts of urine and feces up to the respective time points were recovered, and the amounts of L-aranobic acid were quantified in the same manner. During the test period, the animals were given deionized water only.

The nature of data set [3]: Blood calcium level after administration of calcium L-arabonate (Example 5). In kind it is in vivo. The conditions noted are these: male ICR mice, oral calcium L-arabonate 1.25, 2.5, 5.0 mmol/kg or calcium carbonate 5 mmol/kg, up to 4 hours. As for the experimental part: For the experiment, 11-weeks old male ICR mice were used after overnight fasting. During the test period, the mice were given deionized water only. The mice were divided into four groups (Groups I to IV, 5 animals in each group), and the test substance was orally administered as a solution in deionized water. […] The blood calcium level was quantified by a chelating calorimetric method (ortho-cresolphthalein complexone (OCPC) method). The obtained data were analyzed by a paired t-test, and a risk ratio of 5% or less was considered as significant difference.

Data set [4] deals with dietary calcium absorption. Put plainly: Dietary calcium absorption accelerating effect of sodium L-arabonate in mice fed calcium-deficient diet (Example 2). The note with it: for Ca level in blood, 0 min: 0 min (before administration); for Ca level in blood, 0 min / Ca level in blood, 2 hrs / Ca level in blood, 4 hrs: oral 5 mmol/kg calcium carbonate alone (Group I) or with 5 mmol/kg sodium L-arabonate (Group II), n = 4; for Ca level in blood, 2 hrs: 2 hrs after administration; for Ca level in blood, 4 hrs: 4 hrs after administration; for change in blood calcium level: up to 4 hours after oral administration, mice on calcium-deficient diet. In kind it is in vivo. As to the method:
Eight-week old male ICR mice were used and fed calcium-deficient diet and deionized water for one week. The mice were fasted overnight before the test, and were given deionized water only during the test period. […] The obtained data were analyzed by a paired t-test, and a risk ratio of 5% or less was considered as significant difference.

In data set [5] the test system is experimental osteoporosis induced by combination of ovary excision and calcium-deficient diet. Put plainly: Experimental osteoporosis due to combination of ovary excision and calcium-deficient diet (Example 8). It counts as in vivo, mice. The conditions noted are these: dose 2.5 mmol/kg oral daily. As to the method: (§1) Six-week old female ICR mice were divided into five groups (Groups I to V, 10 animals in each group), and fed calcium-deficient feed (calcium carbonate-free AIN 93M, Oriental Yeast Co., Ltd.) for 4 weeks to induce osteoporosis condition. Calcium L-arabonate was dissolved in water and orally administered daily in a dose of 1.25 mmol/kg (Group II) or 2.5 mmol/kg (Group III). The control group for pathological condition (Group I) was administered with water in the same manner. As a comparative group, a group administered with calcium D-gluconate (dose 2.5 mmol/kg (Group IV)) was provided. A normal control group (Group V) was separately provided and was given the normal feed (AIN 93M, Oriental Yeast Co., Ltd.). After administering the test substance on the second week and fourth week of initiation of the test, the animals were transferred to a metabolic cage, and feces were collected for 24 hours. The amount of calcium and phosphorus excreted in the feces were measured, and the absorption rates of ingested calcium and phosphorous in the digestive tract were determined. After completion of the test period, the animals of the respective groups were sacrificed to remove both femurs and tibiae. The femurs and tibiae were removed muscles etc., then immersed in 70% ethanol overnight, and dried at 60° C. for 24 hours to be used as samples for analysis. The measurement items were dry weight, ash content, calcium content, and phosphorus content. The ash content was measured by an ashing method at 550° C. for 18 hours, the calcium content was measured by an OCPC method (Calcium C-Test Wako, Wako Pure Chemical Industries, Ltd.), and the phosphorus content was measured by a p-methylaminophenol reduction method (Phospho C-Test Wako, Wako Pure Chemical Industries, Ltd.). The obtained data were analyzed by ANOVA and the Dunnett's method, and a risk ratio of 5% or less was considered as significant difference.
Six-weeks old female ICR mice excised their ovaries were divided into 5 groups (Groups I to V, 10 animals in each group), and fed calcium-deficient feed (calcium carbonate-free AIN 93M, Oriental Yeast Co., Ltd.) for 4 weeks to induce osteoporosis condition. Calcium L-arabonate was dissolved in water, and orally administered daily in a dose of 1.25 mmol/kg (Group II) or 2.5 mmol/kg (Group III). The control group for pathological condition (Group I) was administered with water in the same manner. As a comparative group, a group administered with calcium D-gluconate (dose 2.5 mmol/kg (Group IV)) was provided. Also, a group excised ovaries but given with normal feed (AIN 93M, Oriental Yeast Co., Ltd.) (Group V) was separately provided. The measurement of the absorption rate of calcium in the digestive tract, and the analysis of femur and tibia were performed in the same manner as in Example 7.

The test system of data set [6] is experimental osteoporosis induced by calcium-deficient diet. Put plainly: Experimental osteoporosis induced by calcium-deficient diet (Example 7). It counts as in vivo, mice. The conditions noted are these: dose 2.5 mmol/kg oral daily. As for the experimental part:
as §1

Entries after “also recorded” stand apart in the source; their conditions may differ.

For the compound `O=C(O)[C@H](O)[C@@H](O)[C@H](O)[C@H](O)CO` [D-gluconic acid, reference compound], the “change in blood calcium level” value in data set [1] is listed as “not observed to have significant increases in the blood calcium level”.
Consider `O=C(O)[C@H](O)[C@@H](O)[C@@H](O)CO` [L-arabonic acid], for which the LD50 entry with mice is listed as “about 10 g/kg”. The “change in blood calcium level” value in data set [1] is “dose-dependent and significant increases in the blood calcium level; also recorded: calcium absorption was accelerated by L-arabonic acid, and the effect was rapidly acting and continuous”. In addition, in data set [2] (after 24 hours, oral 5 mmol/kg), the “share of the total amount of administration remained in the cecum and colon” value is given as “About 30%”. In data set [2] (from 2 to 6 hours after oral administration), the “absorption in the small intestine” value is on record as “hardly absorbed in the small intestine”. In addition, the “Residual ratio after administration, Cecum, After 2 hrs” value in data set [2] (oral 5 mmol/kg L-arabonic acid, cecum, 2 hrs) stood at 47.7 ± 3.39%. Further, in data set [2] (oral 5 mmol/kg L-arabonic acid, cecum, 6 hrs), the “Residual ratio after administration, Cecum, After 6 hrs” value is listed as 60.6 ± 3.26%. Also, in data set [2] (oral 5 mmol/kg L-arabonic acid, cecum, 24 hrs), the “Residual ratio after administration, Cecum, After 24 hrs” value was determined as 25.9 ± 7.81%. Moreover, the “Residual ratio after administration, Colon, After 2 hrs” value in data set [2] (oral 5 mmol/kg L-arabonic acid, colon, 2 hrs) is given as 0.1 ± 0.14%. The “Residual ratio after administration, Colon, After 6 hrs” value in data set [2] (oral 5 mmol/kg L-arabonic acid, colon, 6 hrs) worked out at 7.4 ± 2.35%. Further, in data set [2] (oral 5 mmol/kg L-arabonic acid, colon, 24 hrs), the “Residual ratio after administration, Colon, After 24 hrs” value came out at 1.9 ± 0.37%. Moreover, the “Residual ratio after administration, Small intestine, After 2 hrs” value in data set [2] (oral 5 mmol/kg L-arabonic acid, small intestine, 2 hrs) worked out at 23.0 ± 3.71%. In addition, the “Residual ratio after administration, Small intestine, After 6 hrs” value in data set [2] (oral 5 mmol/kg L-arabonic acid, small intestine, 6 hrs) stood at 3.3 ± 2.50%. In addition, the “Residual ratio after administration, Small intestine, After 24 hrs” value in data set [2] (oral 5 mmol/kg L-arabonic acid, small intestine, 24 hrs) is 0.8 ± 0.20%. Besides, the “Residual ratio after administration, Stomach, After 2 hrs” value in data set [2] (oral 5 mmol/kg L-arabonic acid, stomach, 2 hrs) is given as 0%. Besides, the “Residual ratio after administration, Stomach, After 6 hrs” value in data set [2] (oral 5 mmol/kg L-arabonic acid, stomach, 6 hrs) amounted to 0%. Further, in data set [2] (oral 5 mmol/kg L-arabonic acid, stomach, 24 hrs), the “Residual ratio after administration, Stomach, After 24 hrs” value worked out at 0%. The “L-arabonic acid in excreted feces” value in data set [2] (oral 5 mmol/kg, feces up to 24 hours) is reported as “detected from the excreted feces”. Also, the “unaltered L-arabonic acid in urine” value in data set [2] (oral 5 mmol/kg, urine up to 24 hours) was “detected from the urine, even in small amount”. In addition, the “level of L-arabonic acid in the blood” value in data set [2] (throughout the test period, oral 5 mmol/kg) was “below the detection limit”.
Consider `O=C([O-])[O-].[Ca+2]` [calcium carbonate, reference compound], for which the “change in blood calcium level” value in data set [1] was “did not show any increase in the blood calcium level”. Moreover, in data set [3], the “change in blood calcium level” value is reported as “did not show any increase in the blood calcium level”. Moreover, in data set [4], the “Ca level in blood, 0 min” value is given as 4.67 ± 0.297 mg/dL; the “Ca level in blood, 2 hrs” value is listed as 4.58 ± 0.143 mg/dL; the “Ca level in blood, 4 hrs” value worked out at 4.82 ± 0.189 mg/dL; the “change in blood calcium level” value was “did not show any increase in the blood calcium level”.
Turning to `O=C([O-])[C@H](O)[C@@H](O)[C@@H](O)CO.[Na+]` [sodium L-arabonate], in data set [4], the “Ca level in blood, 0 min” value amounted to 4.30 ± 0.121 mg/dL; the “Ca level in blood, 2 hrs” value was 5.59 ± 0.232 mg/dL; the “Ca level in blood, 4 hrs” value is 5.62 ± 0.212 mg/dL; the “change in blood calcium level” value is reported as “significant increase in the blood calcium level”.
“calcium D-gluconate [reference compound]”: the “absorption rate of calcium in the digestive tract, fourth week” value in data set [5] (fourth week, ovary-excised mice on calcium-deficient diet) is on record as 45.1%. Moreover, the “absorption rate of calcium in the digestive tract, second week” value in data set [5] (second week, ovary-excised mice on calcium-deficient diet) is 61.1%. Also, in data set [5] (femur, 4 weeks), the “Femur Ash content” value is 27 ± 0.4 mg, the “Femur Ca content” value is recorded as 9.4 ± 0.18 mg, the “Femur P content” value is 4.8 ± 0.14 mg and the “Femur Weight” value worked out at 50 ± 1.2 mg. Also, in data set [5] (tibia, 4 weeks), the “Tibia Ash content” value worked out at 24 ± 0.5 mg, the “Tibia Ca content” value is given as 8.6 ± 0.21 mg, the “Tibia P content” value was 4.4 ± 0.08 mg and the “Tibia Weight” value is 46 ± 1.0 mg. The “absorption rate of calcium in the digestive tract, fourth week” value in data set [6] (fourth week, calcium-deficient diet mice) is 59.8%. In addition, the “absorption rate of calcium in the digestive tract, second week” value in data set [6] (second week, calcium-deficient diet mice) is 74.2%. Besides, in data set [6] (femur, 4 weeks), the “Femur Ash content” value is given as 25 ± 1.3 mg, the “Femur Ca content” value is 8.7 ± 0.42 mg, the “Femur P content” value stood at 4.7 ± 0.21 mg and the “Femur Weight” value was determined as 46 ± 2.1 mg. Also, in data set [6] (tibia, 4 weeks), the “Tibia Ash content” value came to 23 ± 1.2 mg, the “Tibia Ca content” value is 8.3 ± 0.34 mg, the “Tibia P content” value came out at 4.3 ± 0.16 mg and the “Tibia Weight” value came to 44 ± 1.1 mg.
